Assay results from paper PMC12190640 (2025).

System: 37Cy3-74Cy5-riboSAM (RNA, riboswitch, Cy3-modified U at 37, Cy5-modified U at 74) GGGAAGAAAUAACAAUCAACGACGUAUCAUUGUGCCUCGCUUUCCGCGGGGCGAUAAGUCCUGAAGAAAGGGAUGAUAUGACAUAAGAACAUCGG
Assay: smFRET (TIRF)
Settings: 50 mM Na+, 10 mM Tris-HCl pH 8.0, 25 °C, 0.5 mM SAM

binding (2 mM Mg2+, stable EFRET ~0.8 population 18.5% to 37.6%): yes
binding (no Mg2+, no significant structural transition, same at 0.05 mM Mg2+): weak
Compound: C[S+](CC[C@H](N)C(=O)O)C[C@H]1O[C@@H](n2cnc3c(N)ncnc32)[C@H](O)[C@@H]1O (some centres unmarked)
